Target: T1, Synaptotagmin-4 (SYT4) (Homo sapiens, UniProt Q9H2B2)
T1 construct: Recombinant SYT4 protein
T1 sequence (Q9H2B2 1-425): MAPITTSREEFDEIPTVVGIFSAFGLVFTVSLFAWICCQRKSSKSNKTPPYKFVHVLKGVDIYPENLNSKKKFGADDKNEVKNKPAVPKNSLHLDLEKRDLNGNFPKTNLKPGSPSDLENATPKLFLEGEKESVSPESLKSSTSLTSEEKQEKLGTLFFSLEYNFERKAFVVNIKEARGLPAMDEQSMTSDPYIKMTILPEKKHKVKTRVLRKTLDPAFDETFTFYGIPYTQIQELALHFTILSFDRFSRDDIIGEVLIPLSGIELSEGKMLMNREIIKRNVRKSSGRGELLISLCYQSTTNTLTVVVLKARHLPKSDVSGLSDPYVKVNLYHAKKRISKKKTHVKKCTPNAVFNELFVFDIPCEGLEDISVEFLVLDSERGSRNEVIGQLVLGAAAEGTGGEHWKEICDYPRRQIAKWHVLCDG
Test: SPR (Biacore T200, SYT4 immobilized on CM5 chip)
Assay type: binding

SMILES: C=CC(=O)Nc1ccc2[nH]c(=O)n(C3CCN(Cc4ccc(-c5nc6cc[nH]c(=O)c6cc5-c5ccccc5)cc4)CC3)c2c1 [borussertib]
- Kd: 16 µM
